Experimental data: patent publication US20230241037A1, “CROSS-LINKED MEDICATION FOR TREATMENT OF CORONAVIRAL INFECTION AND METHOD OF TREATMENT” (1GLOBE HEALTH INSTITUTE, NANJING, priority 2020, published 2023)

Tests used:
[1] = Standard CCK-8 cytotoxicity assay; type: cell-based; conditions: African green monkey, Vero E6 cells, 48 hours incubation
Experimental: Vero E6 African green monkey kidney cell line was obtained from American Type Culture Collection (ATCC, No. 1586) and maintained in MEM medium (MEM; Gibco Invitrogen) supplemented with 10% fetal bovine serum (FBS; Gibco Invitrogen) at 37° C. in an atmosphere of 5% CO2.
Standard CCK-8 assays were performed to measure the cytotoxic effect of the drug candidates on Vero E6 cells, which was performed in accordance with the manufacturer's instructions (Beyotime, China).

[2] = test system: SARS-CoV-2; assay: microbe, parasite or virus in culture; type: cell-based; conditions: for EC50: Severe acute respiratory syndrome coronavirus 2, Vero C1008, Vero E6 cells, MOI 0.05, 1 hour pretreatment, viral RNA in supernatant 48 hours post infection; for SI (selectivity index): from the CC50 and EC50 values in Vero E6 cells

SMILES | CC50 at 48 h [1] | EC50 [2] | SI (selectivity index) [2]
CC(=O)Oc1ccccc1C(=O)Nc1ncc([N+](=O)[O-])s1 [NTZ, o-[N-(5-nitro-1,3-thiazol-2-yl)carbamoyl]phenol acetate)] | 36.8 µM | 2.1 µM | 17.5
NC(=O)c1ncn([C@@H]2O[C@H](CO)[C@@H](O)[C@H]2O)n1 [RBV, 1-[(2R, 3R, 4S, 5R)-3,4-dihydroxy-5-(hydroxymethyl)oxolan-2-yl]-1H-1,2,4-triazole-3-carboxamide] | > 400 µM | 109 µM | >3.7
